The source of these data is paper PMC6268492, “Synthesis and Antiangiogenic Activity of Novel Gambogic Acid Derivatives” (Molecules, 2012).

The structures appear in SMILES notation.

One data set relates to zebrafish embryos. As to the kind of experiment: Zebrafish toxicity: mortality rate. The data set is classed as in vivo, zebrafish (Danio rerio). The method, then:
To investigate the toxicity of these four compounds, the heart rates and the mortality rates of zebrafish embryos were recorded (Table 2 and Table 3). The heart rate of zebrafish in the control group was 117 beats/min.
Using transgenic fli-1: enhanced GFP zebrafish embryos, we investigated the effects of all compounds on angiogenesis. Zebrafish embryos were generated by natural pairwise mating and raised at 28.5 °C in embryo water (0.2 g/L of Instant Ocean Salt in distilled water). At about 6 h post fertilization (hpf), the embryos were sorted in the 6-well plate (six embryos/well), removing dead and unhealthy embryos. Then the embryos were treated with the indicated concentrations of compounds which were added into embryo water. After incubation for 24 or 48 h, the embryos were anesthetized using 0.05% 2-phenoxyethanol in embryo water, quantified and photographed.

The subject of a further data set is HUVECs. As to the kind of experiment: Wound-healing migration assay. In kind it is cell-based, Human. The settings on record: 1 μM, 24 h, control = 100%. The text has this:
The migration of ECs is an important step of angiogenesis. The continuity of vascular ECs is the most important factor in preserving vessel wall function. Migration of ECs is essential to the recovery of this continuity after vascular ECs injury. […] As illustrated in Figure 3(I), the HUVECs migrated into the wound area actively (between the two white dash lines) under the compound-free condition (control).
Figure 3 Effects on the HUVECs migration. (I) HUVECs suspended in serum-free Dulbecco’s Modified Eagle Medium (DMEM) containing compounds (0.25 or 0.5 or 1 μM) for 24 h were photographed under a phase contrast microscopy (Olympus CKX41, magnification: 50×). Control was treated with serum-free DMEM which was consided as resulting in 100%; (II) Migration rates of compounds on the HUVECs. Data represented the mean standard deviation (SD) from three independent experiments. *** p < 0.005compared with control.
HUVECs were seeded in 6-well plates precoated with 0.1% gelatin, and grown overnight to confluence. The monolayer cells were wounded by scratching with 10 μL pipet tips and washed twice with serum-free DMEM (Dulbecco’s modified eagle medium) to remove the nonadherent cells and then replaced by serum-free DMEM with the indicated concentrations of compounds for 24 h. Images were taken at 0 h and 24 h independently after incubation at 37 °C, 5% CO2 environment. The migrated HUVECs were manually counted. The values were observed from four randomly selected fields.

As for `CC(=O)Nc1ccc(NC(=O)/C(C)=C\CC23OC(C)(C)C4CC(C=C5C(=O)c6c(O)c7c(c(CC8OC8(C)C)c6OC542)OC(C)(CCC2OC2(C)C)C=C7)C3=O)cc1` (centres unmarked) [Compound 36, (32,33),(37,38)-Diepoxy-N-(4-acetamidophenyl) gambogamide], the Mortality rates in the data set with zebrafish embryos (1 μM, zebrafish) was 0%; in the data set on zebrafish embryos (2.5 µM and 10 µM, zebrafish embryos), “less than 20%”; with zebrafish embryos (2.5 μM, zebrafish), 3.3 ± 5.77 %; in the data set with zebrafish embryos (10 μM, zebrafish) it was 16.7 ± 5.77 %. The migratory rates in the data set on HUVECs stood at 1.7%.
